What all share (assay type): cell-based, Human
One assay relates to HT29 cells. The assay is described as follows: Inhibitory effect of compounds on HT29 cell proliferation. The note with it: read-out: IC50, inhibitory activity on HT29 cell proliferation. Here is the method:
(1) Cell plating: First, tumor cells HT29 were cultured in corresponding medium, then digested with trypsin, centrifuged, resuspended, and counted, and the cells were adjusted to an appropriate concentration for plating.
(§1) Co-incubation of the compound of the present disclosure and tumor cells: after the cells adhered to the wall, the medium was removed, and the diluted bioactive molecule (the compound of the present disclosure) was added to the wells of the above plate, and incubated for 72 h.
(§2) In vitro cell viability detection: After the incubation, 50 μL of Cell Counting-Lite™ 2.0 reagent (Vazyme/Novazyme) was added to each well, shaken and mixed well in the dark, reacted for 10 minutes, and then the detection was carried out with a microplate reader (manufacturer: BMG, Model: PHERAStar-FS) for reading. The background RLU was obtained by using cell-free medium (with Cell Counting-Lite™), and the vehicle RLU was obtained by using cell-containing medium (with Cell Counting-Lite™). Cell inhibition rate=1−(sample RLU−background RLU)/(solvent RLU−background RLU)×100%. According to the four-parameter model fitting curve, the half maximal inhibitory concentration (IC50) of the compound was calculated, and the detection results were shown in Table 2.

The next assay has as its system MDA-MB-231 cells. As to the kind of experiment: Inhibitory effect of compounds on MDA-MB-231 cell proliferation. The note with it: read-out: IC50, inhibitory activity on MDA-MB-231 cell proliferation. As for the experimental part: (1) Cell plating: First, tumor cells MDA-MB-231 were cultured in corresponding medium, then digested with trypsin, centrifuged, resuspended, and counted, and the cells were adjusted to an appropriate concentration for plating.
as §1
as §2, with “Table 18.” for “Table 2.”

In the next assay the test system is Jeko-1 cells. The assay is described as follows: Inhibitory effect of compounds on Jeko-1 cell proliferation. The note with it: read-out: IC50, inhibitory activity on Jeko-1 cell proliferation. As for the experimental part: (1) Cell plating: First, tumor cells Jeko-1 were cultured in corresponding medium, then digested with trypsin, centrifuged, resuspended, and counted, and the cells were adjusted to an appropriate concentration for plating.
as §1
as §2, with “Table 20.” for “Table 2.”

Another assay concerns NCI-N87 cells. As to the kind of experiment: Inhibitory effect of compounds on NCI-N87 cell proliferation. Here is the method:
(1) Cell plating: First, tumor cells NCI-N87 were cultured in corresponding medium, then digested with trypsin, centrifuged, resuspended, and counted, and the cells were adjusted to an appropriate concentration for plating.
as §1
as §2, with “Table 12.” for “Table 2.”

In a further assay the test system is Hela cells. The assay is described as follows: Inhibitory effect of compounds on Hela cell proliferation. Particulars: Homo sapiens, HeLa, 72 h, read-out: IC50, inhibitory activity on Hela cell proliferation. Here is the method: (1) Cell plating: First, tumor cells Hela were cultured in corresponding medium, then digested with trypsin, centrifuged, resuspended, and counted, and the cells were adjusted to an appropriate concentration for plating.
as §1
as §2, with “Table 14.” for “Table 2.”

The subject of another assay is A549 cells. The assay is described as follows: Inhibitory effect of compounds on A549 cell proliferation. Particulars: Homo sapiens, A549, 72 h, read-out: IC50, inhibitory activity on A549 cell proliferation. Here is the method: (1) Cell plating: First, tumor cells A549 were cultured in the corresponding medium, then digested with trypsin, centrifuged and resuspended, and counted, and the cells were adjusted to an appropriate concentration for plating.
as §1
as §2, with “cell activity” for “cell viability”, “Table 4.” for “Table 2.”

The next assay has as its system NCI-H358 cells. As to the kind of experiment: Inhibitory effect of compounds on NCI-H358 cell proliferation. The note with it: Homo sapiens, NCI-H358, 72 h, read-out: IC50, inhibitory activity on NCI-H358 cell proliferation, NCI-H358 human non-small cell lung cancer cells, 72 h incubation, Cell Counting-Lite 2.0. Here is the method:
(1) Cell plating: First, tumor cells NCI-H358 were cultured in corresponding medium, then digested with trypsin, centrifuged, resuspended, and counted, and the cells were adjusted to an appropriate concentration for plating.
as §1
as §2, with “Table 10.” for “Table 2.”

In a further assay the test system is SKOV-3 cells. As to the kind of experiment: Inhibitory effect of compounds on SKOV-3 cell proliferation. Particulars: Homo sapiens, SK-OV-3, 72 h, read-out: IC50, inhibitory activity on SKOV-3 cell proliferation. As for the experimental part: (1) Cell plating: First, tumor cells SKOV-3 were cultured in corresponding medium, then digested with trypsin, centrifuged, resuspended, and counted, and the cells were adjusted to an appropriate concentration for plating.
as §1
as §2, with “Table 8.” for “Table 2.”

Read-outs that look alike come from different tables or passages of the source.

From patent US20250346606A1, “CAMPTOTHECIN COMPOUND, PREPARATION METHOD THEREFOR, AND APPLICATION THEREOF” (SICHUAN KELUN-BIOTECH BIOPHARMACEUTICAL CO., LTD., priority 2021, published 2025) come the findings set out here.

`CC[C@@]1(O)C(=O)OCc2c1cc1n(c2=O)Cc2c-1nc1cc(F)c(C)c3c1c2[C@H](CN)CC3` (single isomer, unassigned) [Example 13 (5-7-B)]: the IC50 with HT29 cells (Homo sapiens, HT-29, 72 h) was found to be 4.66 nM; in the assay with MDA-MB-231 cells (Homo sapiens, MDA-MB-231, 72 h), 172 nM; in the assay with Jeko-1 cells (Homo sapiens, JeKo-1, 72 h), 0.18 nM; in the assay with NCI-N87 cells (Homo sapiens, NCI-N87, 72 h, read-out: IC50, inhibitory activity on NCI-N87 cell proliferation, NCI-N87 human gastric cancer cells, 72 h incubation, Cell Counting-Lite 2.0) it was 7.31 nM.
Take `CC[C@@]1(O)C(=O)OCc2c1cc1n(c2=O)Cc2c-1nc1cc(F)c(C)c3c1c2[C@@H](NC(=O)[C@H](O)CN(C)C)CC3` (single isomer, unassigned) [Example 20 (1-10-A)]: the IC50 was 61.6 nM with HT29 cells (Homo sapiens, HT-29, 72 h) and 97.6 nM with MDA-MB-231 cells (Homo sapiens, MDA-MB-231, 72 h).
For `CC[C@@]1(O)C(=O)OCc2c1cc1n(c2=O)Cc2c-1nc1cc(F)c(C)c3c1c2[C@@H](NC(=O)[C@@H](O)CN(C)C)CC3` (single isomer, unassigned) [Example 20 (1-10-B)] the same measures were 10.3 nM and 27.2 nM.
Consider `CC#C[C@H](O)C(=O)N[C@H]1CCc2c(C)c(F)cc3nc4c(c1c23)Cn1c-4cc2c(c1=O)COC(=O)[C@]2(O)CC` [Example 1 (1-1-B), (S)—N-((1S,9S)-9-ethyl-5-fluoro-9-hydroxy-4-methyl-10,13-dioxo-2,3,9,10,13,15-hexahydro-1H,12H-benzo[de]pyrano[3′,4′:6,7]indolizino[1,2-b]quinolin-1-yl)-2-hydroxypent-3-yneamide], for which the IC50 was found to be 3.65 nM in the assay with Hela cells and 1.54 nM with HT29 cells (Homo sapiens, HT-29, 72 h).
Consider `CC[C@@]1(O)C(=O)OCc2c1cc1n(c2=O)Cc2c-1nc1cc(Cl)c(C)c3c1c2[C@H](NC(=O)C1(O)CC1)CC3` [Example 7 (2-20-B), N-((1R,9S)-5-chloro-9-ethyl-9-hydroxy-4-methyl-10,13-dioxo-2,3,9,10,13,15-hexahydro-1H,12H-benzo[de]pyrano[3′,4′:6,7]indolizino[1,2-b]quinolin-1-yl)-1-hydroxycyclopropane-1-carboxamide], for which the IC50 was 4.03 nM in the assay with HT29 cells (Homo sapiens, HT-29, 72 h) and 23.1 nM in the assay on A549 cells.
As for `CC[C@@]1(O)C(=O)OCc2c1cc1n(c2=O)Cc2c-1nc1cc(F)c(Cl)c3c1c2[C@@H](NC(=O)CO)CC3` [Example 9 (3-4-A), N-((1S,9S)-4-Chloro-9-ethyl-5-fluoro-9-hydroxy-10,13-dioxo-2,3,9,10,13,15-hexahydro-1H, 12H-benzo[de]pyrano[3′,4:6,7]indolizino[1,2-b]quinolin-1-yl)-2-hydroxyacetamide], the IC50 in the assay with HT29 cells (HT29 human colon cancer cells, 72 h incubation, Cell Counting-Lite 2.0) turned out to be 5.55 nM; with MDA-MB-231 cells (MDA-MB-231 human breast cancer cells, 72 h incubation, Cell Counting-Lite 2.0) it was 285 nM; in the assay with Jeko-1 cells (Jeko-1 human mantle cell lymphoma cells, 72 h incubation, Cell Counting-Lite 2.0), 0.27 nM; in the assay on NCI-N87 cells (NCI-N87 human gastric cancer cells, 72 h incubation, Cell Counting-Lite 2.0, read-out: IC50, inhibitory activity on NCI-N87 cell proliferation), 4.38 nM.
For the molecule `CC[C@@]1(O)C(=O)OCc2c1cc1n(c2=O)Cc2c-1nc1cc3c(cc1c2CCNC1CC1)OCO3` [Example 21 (4-14), (S)-14-(2-(Cyclopropylamino)ethyl)-7-ethyl-7-hydroxy-7H-[1,3]dioxolano[4,5-g]pyrano[3′,4′:6,7]indolizino[1,2-b]quinolin-8,11 (10H,13H)-dione], the IC50 with HT29 cells (Homo sapiens, HT-29, 72 h) was determined as 0.56 nM; in the assay with NCI-H358 cells it was 12 nM; in the assay with Jeko-1 cells (Homo sapiens, JeKo-1, 72 h) it was 0.34 nM; in the assay with SKOV-3 cells, 2.16 nM.
As to `CC[C@@]1(O)C(=O)OCc2c1cc1n(c2=O)Cc2c-1nc1cc3c(cc1c2CCNCCOC)OCO3` [Example 22 (4-15), (S)-7-Ethyl-7-hydroxy-14-(2-((2-methoxyethyl)amino)ethyl)-7H-[1,3]dioxolano[4,5-g]pyrano[3′,4′:6,7]indolizino[1,2-b]quinolin-8,11 (10H,13H)-dione], the IC50 with HT29 cells (Homo sapiens, HT-29, 72 h) stood at 5.2 nM; in the assay on NCI-H358 cells it was 17.8 nM; in the assay on MDA-MB-231 cells (Homo sapiens, MDA-MB-231, 72 h), 175 nM; in the assay on Jeko-1 cells (Homo sapiens, JeKo-1, 72 h), 0.11 nM.
